In US20260263468A1 (Fundación Instituto de Investigación Sanitaria Fundación …, priority 2023, published 2026):
Several values for one entry are separate records, joined by “and”; a condition that tells them apart may be missing. Equal entries are not always repeated.

Experiments:
[1] = test system: C2C12; test: Western blot of phosphorylated AMPK; assay type: cell-based; details: 1 μM, day 4, vs basal
Description: (§1) Cells were lysed with RIPA buffer and protein concentration was determined by BCA. […] Variations in intensity were expressed as % of basal (day 0) and expressed as mean±SEM. All results were calculated as a percentage of non-differentiated controls to minimize the intrinsic variation among different experiments.
We next studied if these changes in AMP/ATP ratio had any effect in AMPK activation.

[2] = test system: C2C12; test: Nucleotide concentration by HPLC during C2C12 differentiation; assay type: cell-based
Description: Supernatant and cell lysate are collected every day. Cells were lysated with a homemade buffer (1 mM phenylmethylsulfonyl fluoride, 1 mM protease inhibitor cocktail, 1 mM sodium orthovanadate, 1 mM sodium fluoride and 1 mM β-glicerophospate) and supernatant was used directly. A heat shock step was done at 98° C. for 2 min, and to avoid adenosine degradation 1 μM EHNA was added at the time of heating. All samples were centrifuged at 13000 g for 10 min at 4° C. and supernatants were collected and stored at −80° C. until use. Inosine, adenosine, AMP, ADP and ATP concentrations were determined with high performance liquid chromatography (HPLC) using a liquid chromatograph with a reversed phase column (Agilent 1100 Series Liquid Chromatography) and an UV detector set at 254 nm. Buffer composed of 0.1 mol/L KH2PO4 (pH 7.5) and 18% acetonitrile was run at 1.5 ml/min for 20 min. Compounds were identified and quantified by their retention times and peak areas of known standards, calibrated by spectrophotometry. […] The results have been corrected and expressed as mean±SEM. All results were calculated as a percentage of controls without differentiation state.

[3] = test system: C2C12; test: Western blot of myogenesis markers during differentiation; assay type: cell-based
Description: as §1

[4] = test system: C2C12; test: cAMP concentration (ELISA); assay type: cell-based; details: myoblast, 1 μM, 5 minutes; control 0.58±0.13
Description: CAMP concentration was measured using the colorimetric cAMP ELISA kit following manufacture protocol for acetylated cell lysates (Cell Biolabs, San Diego, USA). Absorbance was measured at 450 nm using a microplate reader Tecan Spark 20M.
The CAMP signaling cascade has been linked to a delay in the onset of age-related muscle loss.

[5] = test system: C2C12 cells; test: Cell proliferation assay (AlamarBlue); assay type: cell-based; details: 24 h after 2% HS addition, control 100±7.3%
Description: C2C12 cells (American Type Culture Collection, ATCC, Manassas, VA, USA) were cultured in DMEM supplemented with 10% FBS and 1% penicillin-streptomycin. To induce myogenic differentiation, 70% confluence C2C12 cells were culture in DMEM containing 2% HS (horse serum). Cells were maintained in a humidified chamber at 37° C., in 95% air and 5% CO2. Media was replaced with fresh every 48h.
C2C12 cells were plated in 96-well plates (Corning, Cultek, Spain) (12.500 cells/well). Cell proliferation was measured using AlamarBlue assay according to the manufacturer's instructions, at 24 and 48 h of myogenic differentiation.

[6] = test system: C2C12; test: Western blot of adenosine receptors, P2X7 and Panx-1 during differentiation; assay type: cell-based
Description: as §1
The expression of adenosine receptors, P2X7 receptor and Panx-1 channel was analyzed during myoblast differentiation.

[7] = test system: C2C12; test: Western blot of PKA isoforms, pCREB, EPAC1/2; assay type: cell-based
Description: as §1
To study the CAMP signaling pathway, we analyzed the expression of PKA on its three catalytic isoforms PKAα, PKAβ and PKAγ as well as EPAC1/2. […] Tenofovir reduced its phosphorylation (154±9% tenofovir vs 247±30% control at day 4, p<0.05, FIG. 3B).

[8] = mice, tenofovir 75 mg/Kg/day; cited from earlier work
[9] = test system: C2C12; test: AMPK phosphorylation assay kit (short time points); assay type: cell-based; details: myoblast, 1 μM, 10 min after switching to 2% HS; control 1.97±0.17
Description: Assay was performed with the AMPK phosphorilation assay kit (Abnova Corporation, Jhouzih St, Taiwan) as manufactor instructions and pAMPK was measured at λex/em 530/585 nm and 360/450 nm for total protein with Tecan Infinite.

[10] = test system: C2C12 myoblast cell line; test: Western blot of C2C12 under pro-inflammatory conditions with/without dipyridamole; details: for PAX7 expression (vs 100% basal): IL-6 2.5 μg/ml, INFγ 1 μg/ml or LPS 10 μg/ml ± dipyridamole 1 μM, control 64.7±5%; for PAX7 expression (vs 100% basal) / AMPK activation / CREB activation / MHC expression (vs 100% basal) / PKAα expression: day 4; for A2BR expression / AMPK activation / CREB activation / MHC expression (vs 100% basal): cytokine/LPS ± dipyridamole 1 μM; for AMPK activation: control 222.7±23.9%; for CREB activation: control 353.7±45.15%; for MHC expression (vs 100% basal): control 757.6±85.7%; for PKAα expression: control 213.9±21.6%
Description: Western blot was performed as described above.
Protein concentration was determined by BCA. 4 μg for cells and 40-50 μg for tissue samples of protein was subjected to 6-15% SDS-PAGE and transferred to a nitrocellulose membrane. Membranes were blocked with 3% BSA in Tris-buffered saline containing 0.1% Tween-20 (TBS-T). After that, the membranes were incubated overnight at 4° C. with the primary antibodies for A2A, A2B, MHC (Thermo Fisher Scientific, Waltham, USA), AMPK, pAMPK (Thr172), p21, p16 (Cell signaling, Danvers, EEUU) (1:1000 each) and Pax-7 (Developmental Studies Hybridoma Bank, Houston, EEUU) (1:500 each).

[11] = test system: C2C12 myobundles; test: C2C12 3D myobundle with IL-6 ± dipyridamole; assay type: cell-based; details: IL-6 2.5 μg/ml ± dipyridamole 1 μM, 14 days; Sham 890±39
Description: C2C12 myobundles were fabricated following the protocol described by Bursac group (see references in ref. 44). Briefly, molds of polydimethylsiloxane (PDMS) designed for 12-well plates were created from Teflon masters with semicylindrical wells. These molds were sterilized, coated with 0.2% (w/v) Pluronic F-127 (Invitrogen) to prevent tissue adhesion, and paired with laser-cut Cerex frames (9×9 mm^2, 1-mm-wide rim) for myobundle attachment. The frames served as an anchor and guide during hydrogel compaction, ensuring uniaxial cell alignment. C2C12 cells were encapsulated in a hydrogel solution, including bovine fibrinogen (Sigma-Aldrich), matrigel (Corning), bovine thrombin (Sigma-Aldrich), and growth medium as concentration of bursac group indicates Referencias. The cell/hydrogel mixture was polymerized in the PDMS molds, and myobundles were cultured in a humidified chamber at 37° C., in 95% air and 5% CO2. After 4 days, the frames with myobundles were suspended in DM with treatments. DM and treatments are replaced every two days. GM and DM media contained 6-aminocaproic acid to reduce fibrinolysis. […] After the 14 days of treatment a bright-field photograph was taken to analyze the thickness of the fiber at its midpoint, and subsequently, they were embedded in OCT medium. […]

## C[C@H](Cn1cnc2c(N)ncnc21)OCP(=O)(O)O [tenofovir]
[1]
  pAMPK (Western blot): 1.15±0.05
[2]; 1 μM each, day 1, control 4.93±0.02
  Intracellular ATP: 11.56 ± 0.26 nM and 11.74 ± 0.08 nM
[2]; 1 μM each, day 3, control 1.88±0.12
  Intracellular AMP/ATP ratio: 0.62±0.03
[2]; 1 μM each, day 4, control 14.7±0.5
  Extracellular ATP: 10.67 ± 0.28 nM
[2]; 1 μM, day 4, control 10.87±0.73
  Intracellular adenosine: did not change
[2]; 1 μM, day 4, control 11.07±0.54
  Intracellular inosine: did not modulate
[2]; 1 μM, day 4, control 12.10±0.73
  Intracellular AMP: 6.33 ± 0.35 nM
[2]; 1 μM, day 4 of differentiation, control 11.6±0.81
  Extracellular adenosine: 6.65 ± 0.54 nM
[3]; 1 μM each, day 1
  MHC protein expression (% of basal): 1429±379% and 1153±131%
[3]; 1 μM, day 1, control 315±58%
  PAX7 protein expression (% of basal): 101±23%
[3]; 1 μM, day 2, control 182±8%
  MyoD protein expression (% of basal): 389±33%
[3]; 1 μM, first 2 days of differentiation
  Myf5 protein expression (% of basal): 142±23%
[4]
  cAMP levels: 0.24±0.07
[5]; 1 μM
  Proliferation compared to control: 63.3±5%
[5]; 10 μM
  Proliferation compared to control: 62.8±6.4%
[6]; 1 μM each, day 4
  Adenosine A2B receptor protein expression (% of basal): 553±47%
[6]; 1 μM, compared to control
  A3 receptor protein expression: did not change
[6]; 1 μM, day 4
  P2X7 protein expression (% of basal): 89±19%
[7]; 1 μM each, day 4, control 292±65%
  PKAα protein expression (% of basal): 215±90% and 215.8±94.2%
[7]; 1 μM, day 4, control 247±30%
  pCREB (% of basal): 154±9%
[7]; 1 μM, within differentiation
  EPAC2 protein expression: maintained the expression similar to basal levels
[8]
  Body weight lost: ~10%
[9]
  AMPK activation: 1.02±0.19

B1: INFγ: pro-inflammatory cytokine used at 1 μg/ml on C2C12 (protein, UniProt P01580 23-155, looked up)
Interferon gamma: HGTVIESLESLNNYFNSSGIDVEEKSLFLDIWRNWQKDGDMKILQSQIISFYLRLFEVLKDNQAISNNISVIESHLITTFFSNSKAKKDAFMSIAKFEVNNPQVQRQAFNELIRVVHQLLPESSLRKRKRSRC
[10]
  PAX7 expression (vs 100% basal): 114±11%
  AMPK activation: 80.4±6.1%
  CREB activation: 176.7±27.8%
  MHC expression (vs 100% basal): 123.1±20.3%
  PKAα expression: 101.7±3.7%
[10]; 24 h, control 112.9±4.7%
  A2BR expression: 69.3±1.9%
[10]; 4 days, control 172.7±12.6%
  A2BR expression: 66.03±20.3%

B2: IL-6: pro-inflammatory cytokine used at 2.5 μg/ml on C2C12 (protein, UniProt P08505 25-211, looked up)
Interleukin-6: FPTSQVRRGDFTEDTTPNRPVYTTSQVGGLITHVLWEIVEMRKELCNGNSDCMNNDDALAENNLKLPEIQRNDGCYQTGYNQEICLLKISSGLLEYHSYLEYMKNNLKDNKKDKARVLQRDTETLIHIFNQEVKDLHKIVLPTPISNALLTDKLESQKEWLRTKTIQFILKSLEEFLKVTLRSTRQT
[10]
  PAX7 expression (vs 100% basal): 121±8%
  AMPK activation: 80.9±5.8%
  CREB activation: 163.4±19.26%
  MHC expression (vs 100% basal): 127.7±15.8%
  PKAα expression: 107±5.8%
[10]; 24 h, control 112.9±4.7%
  A2BR expression: 75.8±2.2%
[10]; 4 days, control 172.7±12.6%
  A2BR expression: 67.6±3%
[11]
  Myobundle thickness: 616.3±22.9 μm
